For `COC12C(COC(N)=O)C3=C(C(=O)C(C)=C(Nc4ccccc4)C3=O)N1CC1NC12` (stereo not given), the logP came out at 1.3.
In turn, `CN1CCN(C)C1=Nc1ncc([N+](=O)[O-])s1` had a logP of 0.95.
Turning to `CNc1nc(=O)cc(-c2ccc([N+](=O)[O-])o2)s1`, the log partition coefficient (logP) amounted to 0.86.
The result for `NC(=S)NN=Cc1cccc(O)c1` reads 1.61; that for `C=CC(CC)OC(N)=O` (stereo not given), 1.09.
As for `COc1cc(Cc2cnc(N)nc2N)cc(OC)c1Br`, the logP amounted to 2.01.
With `[Br-].c1ccc(CC[n+]2ccccc2)cc1` the figure was -2.35.
The result for `CCC(=O)c1ccc(OC(=O)NC)cc1` reads 1.55; that for `O=C(O)Cc1ccc(OCc2ccccc2)c(Cl)c1`, 3.43; that for `COC1OCC(O)C(NC(=O)N(C)N=O)C1O` (stereo not given), -1.08.
Consider `O=S1(=O)NC(C2CCCC2)=Nc2ccccc21`, for which the logP is 1.83.
For `CC(C)(C)C1=Nc2ccc(Cl)cc2S(=O)(=O)N1`, the logP stood at 2.4.
For `Clc1nc2c(Cl)c(Cl)c(Cl)c(Cl)c2[nH]1`, the logP was found to be 4.53.
For `CC(=O)C(C#N)=NNc1cc(C(F)(F)F)ccc1Cl`, the logP turned out to be 5.08.
`CCOC(=O)CN(C(=O)CCl)c1ccccc1` had a logP of 1.6.
With `O=[N+]([O-])c1nccn1CC(O)CO` (stereo not given) the figure was -0.96.
`COc1cc(Cc2cnc(N)nc2N)ccc1C(C)(C)O` came in with a logP of 1.38.
In turn, `CS(=O)(=O)c1ccc(NS(=O)(=O)C(F)(F)F)cc1` came in with a logP of 1.99.
For the molecule `COP(=O)(NCC(C)C)SC` (stereo not given), the logP was 0.97.
The result for `O=[N+]([O-])C=Cc1ccc([N+](=O)[O-])cc1` reads 1.89.
The result for `Brc1ccc(N=C2NCCN2)cc1` reads 1.75; that for `Nc1nc(N)nc(-c2cccc(Br)c2)n1`, 2.44.
`Cc1cc(-n2[nH]c(C)cc2=O)nc(C)n1` yielded a log partition coefficient (logP) of 0.89.
`CC(=O)Nc1cc(OCC(=O)O)ccc1Cl` gave a logP of 0.75.
`O=S(=O)(Nc1ccc(I)cc1)C(F)(F)F` registered a log partition coefficient (logP) of 4.39.
With `CSC(C)=NOC(=O)N(C)SN(C)C(=O)c1ccccc1` the figure was 2.2; with `O=[N+]([O-])c1c(Cl)c[n+]([O-])c2ccccc12`, 1.33.
Turning to `CC(C)NNC(=O)C(C)(C)Oc1ccc(Cl)cc1`, the lipophilicity (logP) was found to be 2.56.
Consider `O=NN(CCCl)C(=O)NC1CS(=O)(=O)CS(=O)(=O)C1`, for which the logP is -0.94.
The result for `O=C(CN1CCCCC1)Nc1ccc(Cl)cc1` reads 3.34.
Molecule `Cc1noc(-c2ccccn2)n1` came in with a logP of 0.89.
The molecule `CN(Cc1ccccc1)N=Nc1ccc(C#N)cc1` came in with a log partition coefficient (logP) of 3.82.
On to `O=[N+]([O-])c1nccn1C1OC(CO)C(O)C(O)C1O` (stereo not given), for which the lipophilicity (logP) was -1.4.
As for `CCCCCCCCCC[n+]1ccccc1.[Br-]`, the logP was -0.72.
Regarding `CC1=Nc2c([N+](=O)[O-])cc(Cl)cc2S(=O)(=O)N1`, the logP is 0.85.
With `CCN(CCOC(C)=O)c1ccccc1`, the logP stood at 2.04.
In the case of `CC(=O)c1ccccc1NCCO`, the logP was found to be 1.59.
The result for `CSc1nnc(C)c(=O)n1N` reads -0.16.
With `Nc1nc(N)nc(-c2cc(Br)ccc2F)n1` the figure was 1.94; with `C[N+](C)(C)Cc1ccncc1.[Br-]`, -3.95.
Molecule `COc1ccc(Cc2cnc(N)nc2N)c(OC)n1` displayed a lipophilicity (logP) of 2.01.
Consider `CCC(=O)N(C)SN(C)C(=O)ON=C(C)SC`, for which the logP was 1.6.
The result for `COc1ccc(Br)cc1Cc1cnc(N)nc1N` reads 2.44; that for `CN(C)N=Nc1ccc(C#N)cc1`, 2.39.
With `CN(C)CCC=C1c2ccccc2CCc2c(Cl)cccc21` the figure was 5.55.
The result for `Brc1n[nH]c(Br)n1` reads 2.24; that for `CCCS(=O)(=O)c1cc(OC)c(OC)c(OC)c1`, 1.56.
The molecule `Clc1cccc(-c2ccccc2)c1Cl` came in with a log partition coefficient (logP) of 5.02.
Molecule `O=NN(CCF)C(=O)NC1CSCSC1` gave a log partition coefficient (logP) of 1.54.
`O=[N+]([O-])c1nccn1C1SC(CO)C(O)C(O)C1O` (stereo not given): the lipophilicity (logP) is -0.66.
Regarding `CC(=O)c1ccc(N2C(N)=NC(N)=NC2(C)C)cc1`, the lipophilicity (logP) is -0.04.
`CCCC12CC3CC(CC(N)(C3)C1)C2`: the logP turned out to be 3.76.
As to `O=C1NC(=S)SC1=Cc1ccc([N+](=O)[O-])o1`, the logP came to 0.74.
Regarding `CCCCNc1nnc(C(C)C)c(=O)n1N`, the logP is 1.78.
With `Clc1cc(Cl)c(N=C2NCCN2)c(Cl)c1` the figure was 2.18; with `O=C(O)COc1cccc(S(=O)(=O)C(F)(F)F)c1`, 2.19; with `CS(=O)(=O)Nc1cccc(NS(C)(=O)=O)c1`, 0.07.
`Cn1nnnc1Sc1ccccc1` had a log partition coefficient (logP) of 1.63.
The molecule `CSC(C)=NOC(=O)N(C)SN(C)C(=O)c1cccc(C(F)(F)F)c1` had a lipophilicity (logP) of 2.5.
As to `N#Cc1cccc(N2C(=O)CCC2=O)c1`, the logP was found to be 0.02.
`CN1CCN(N=O)CC1`: the log partition coefficient (logP) came to 0.2.
With `CC1NCCN1CCO` (stereo not given) the figure was -1.93; with `Nc1nnc(S(N)(=O)=O)s1`, -0.9; with `CN(C)CC(=O)NCc1ccccc1`, 1.11.
The result for `O=C(O)COc1ccc(Cl)c(C(=O)O)c1` reads 1.07; that for `COC(CN1CCCC1)c1ccccc1` (stereo not given), 1.88; that for `CNC(=O)C(Cc1ccccc1)NC(C)=O` (stereo not given), 0.4.
The result for `O=NN(CCCl)C(=O)NCCCCNC(=O)N(CCCl)N=O` reads 0.9; that for `O=C(NO)Nc1ccc(Cl)cc1`, 1.39.
With `CC(=O)OCC1=C(C(=O)O)N2C(=O)C(NC(=O)C(O)c3ccccc3)C2SC1` (stereo not given), the lipophilicity (logP) is -0.44.
With `COC(=O)C(C#N)=NNc1cc(Cl)c(Cl)cc1Cl`, the lipophilicity (logP) was determined as 5.15.
`Cc1cc(C)c(NC2=NCCN2)c(Cl)c1` yielded a logP of 2.1.
Regarding `CNc1nnc(C(C)C)c(=O)n1N`, the lipophilicity (logP) stood at 0.3.
With `CC(=O)Oc1ccc(C=CNC=O)cc1` the figure was 1.32; with `COc1cc(CC(=O)O)ccc1OCc1ccccc1`, 2.59; with `CN(C)N=Nc1ccc(S(N)(=O)=O)cc1`, 1.06.
`NC(=O)CCn1nnc2ccccc21` came in with a log partition coefficient (logP) of 0.27.
In turn, `CCOC(=O)c1ccc2ncccc2c1` gave a logP of 2.64.
Turning to `CNC(=NC#N)NC`, the lipophilicity (logP) is -0.4.
On to `O=C(NCC(O)c1ccc([N+](=O)[O-])cc1)C(F)(F)F` (stereo not given), for which the logP came out at 1.46.
As to `O=S(=O)(Nc1cccc(C(F)(F)F)c1)C(F)(F)F`, the logP came to 4.5.
The result for `CNc1ncnc2sccc12` reads 1.43.
Molecule `COc1cc(S(=O)(=O)CCN2CCOCC2)cc(OC)c1OC` registered a log partition coefficient (logP) of 1.29.
`O=C(NC1CC1)c1cc(N2CC2)c([N+](=O)[O-])cc1[N+](=O)[O-]`: the lipophilicity (logP) worked out at 0.74.
For `O=C1CN=C(c2ccccc2F)c2cc(I)ccc2N1CC(O)CO` (stereo not given), the logP worked out at 1.81.
The result for `CC1(C)SC2C(NC(=O)C(O)c3ccccc3)C(=O)N2C1C(=O)O` (stereo not given) reads 1.4.
In the case of `CCOC(=O)C(=Cc1ccccc1)C(=O)OCC`, the logP is 3.13.
Consider `CNP(=O)(OC)Oc1ccc(C(C)(C)C)cc1` (stereo not given), for which the log partition coefficient (logP) is 2.71.
With `O=[N+]([O-])c1cnc(N=C2NCCN2)s1` the figure was 1.38; with `Cc1[nH]c(=O)n(OC(C)C)c(=O)c1Br`, 0.45.

By logP is commonly meant the decadic logarithm of the partition coefficient of the neutral form, usually between octanol and water. A lower logP goes with a more hydrophilic compound.
